Assay: heat capacity at constant pressure per volume
Conditions: 10000 kPa, Liquid, Tian-Calvet differential microcalorimeter

CCCCCCCCn1cc[n+](C)c1.O=S(=O)([N-]S(=O)(=O)C(F)(F)F)C(F)(F)F
Conditions | heat capacity [J/K/m3]
325 K | 1950000
337.36 K | 1964000
349.71 K | 1973000
362.07 K | 1984000
374.43 K | 1993000
386.8 K | 2004000
399.16 K | 2012000
411.52 K | 2018000
423.88 K | 2029000
436.25 K | 2036000
448.61 K | 2049000
460.97 K | 2049000
473.33 K | 2053000
485.69 K | 2056000
498.06 K | 2068000
510.42 K | 2069000
522.79 K | 2084000
535.15 K | 2082000
547.51 K | 2099000
554.94 K | 2098000

CCCCCC[n+]1ccn(C)c1.O=S(=O)([N-]S(=O)(=O)C(F)(F)F)C(F)(F)F
Conditions | heat capacity [J/K/m3]
325.02 K | 1953000
337.38 K | 1966000
349.75 K | 1972000
362.12 K | 1982000
374.48 K | 1989000
386.84 K | 2004000
399.19 K | 2009000
411.56 K | 2021000
423.91 K | 2034000
436.27 K | 2038000
448.63 K | 2053000
460.99 K | 2050000
473.35 K | 2051000
485.72 K | 2055000
498.09 K | 2067000
510.46 K | 2066000
522.84 K | 2081000
535.2 K | 2079000
547.56 K | 2096000
554.94 K | 2121000

Reference: the NIST ThermoML archive (doi:10.1021/je900676b)
